Experimental data as given in the supplement of paper PMC13380429.

Key:
Conditions in all cases: 72 h
[1] = tested on: Caco-2; test: drug sensitivity score (DSS) for viability; higher = more toxic; extreme values may be limits of the assay
[2] = tested on: Calu-3; test: as above
[3] = tested on: HepG2; test: as above
[4] = tested on: Vero E6; test: as above
[5] = tested on: Caco-2; test: cell viability relative to DMSO; higher = less toxic
[6] = tested on: Calu-3; test: as above
[7] = tested on: HepG2; test: as above
[8] = tested on: Vero E6; test: as above
[9] = tested on: Caco-2; test: relative viability EC50 (midpoint between 100% and the lowest measured viability); higher = less toxic
[10] = tested on: Calu-3; test: as above
[11] = tested on: HepG2; test: as above
[12] = tested on: Vero E6; test: as above
[13] = tested on: U2OS; test: drug sensitivity score (DSS) for viability; higher = more toxic; extreme values may be limits of the assay
[14] = tested on: U2OS; test: cell viability relative to DMSO; higher = less toxic
[15] = tested on: U2OS; test: relative viability EC50 (midpoint between 100% and the lowest measured viability); higher = less toxic

SMILES	drug sensitivity score [1]	drug sensitivity score [2]	drug sensitivity score [3]	drug sensitivity score [4]	cell viability ([5]; 1 nM) [%]	cell viability ([5]; 10 nM) [%]	cell viability ([5]; 100 nM) [%]	cell viability ([5]; 1000 nM) [%]	cell viability ([5]; 10000 nM) [%]	cell viability ([6]; 1 nM) [%]	cell viability ([6]; 10 nM) [%]	cell viability ([6]; 100 nM) [%]	cell viability ([6]; 1000 nM) [%]	cell viability ([6]; 10000 nM) [%]	cell viability ([7]; 1 nM) [%]	cell viability ([7]; 10 nM) [%]	cell viability ([7]; 100 nM) [%]	cell viability ([7]; 1000 nM) [%]	cell viability ([7]; 10000 nM) [%]	cell viability ([8]; 1 nM) [%]	cell viability ([8]; 10 nM) [%]	cell viability ([8]; 100 nM) [%]	cell viability ([8]; 1000 nM) [%]	cell viability ([8]; 10000 nM) [%]	relative viability EC50 [9] [µM]	relative viability EC50 [10] [µM]	relative viability EC50 [11] [µM]	relative viability EC50 [12] [µM]	drug sensitivity score [13]	cell viability ([14]; 1 nM) [%]	cell viability ([14]; 10 nM) [%]	cell viability ([14]; 100 nM) [%]	cell viability ([14]; 1000 nM) [%]	cell viability ([14]; 10000 nM) [%]	relative viability EC50 [15] [µM]
COc1cc2ncc(-c3ccccc3)nc2cc1OC [tyrphostin-AG-1296]	0	0	0	0	92.7	104	91.6	96.2	95.4	102	86.2	91.3	84.8	100	107	108	98.1	106	95.8	95.4	99.8	96.3	98	99.5	> 10	> 10	> 10	> 10	–	–	–	–	–	–	–
Cc1cc(C(=O)NOCCO)c(Nc2ccc(I)cc2F)n(C)c1=O [AZD8330]	12	24.3	35	19.2	86.1	83.3	70	62.1	66.3	78.8	69.5	44	29.3	25.7	78.2	34	24	20.1	18.4	89.5	72.1	52	47.7	49.2	–	0.0118	0.0026	0.0072	13.3	93.1	94	86.2	37.3	28.3	0.265
Cn1c(=O)c2[nH]c(Br)nc2n(C)c1=O [pamabrom]	0	0	0	–	90.3	103	91	109	101	105	99.3	100	103	105	100	94.8	92.9	89.7	112	–	–	–	–	–	> 10	> 10	> 10	–	0	98.6	99.8	97.9	102	96.4	> 10
CCCCCCCCCCCCCCCC(=O)OC[C@H](COP(=O)([O-])OCC[N+](C)(C)C)OC(=O)CCCCCCCCCCCCCCC [colfosceril-palmitate]	1.9	0.2	0	0	115	113	101	95.7	71.7	100	103	98.1	99.2	86.9	97.5	108	93.3	101	99.7	102	97.3	96.7	95.6	95.6	–	> 10	> 10	> 10	0	102	103	94.8	101	95.9	> 10
C#C[C@]1(O)CC[C@H]2[C@@H]3CCc4cc(OC)ccc4[C@H]3CC[C@@]21C [mestranol]	0.4	0	0	–	96.8	106	102	100	82.7	89.6	102	108	104	103	113	104	107	103	97.5	–	–	–	–	–	> 10	> 10	> 10	–	0	102	98.6	96.7	101	96.1	> 10
CC(=O)N1CCN(CCOc2ccc(C3CCN(C4=Nn5c(nnc5C(F)(F)F)CC4)CC3)cc2)CC1 [AZD3514]	1.1	0	4.5	3.4	90.2	99.3	93.7	98.3	75.9	98.2	96.1	89.4	107	91	88.9	95.9	82.4	91.4	43.2	104	98.3	92.2	90.7	59.1	> 10	> 10	1.97	–	2.1	99.8	94	99.4	94.9	69.9	–
O=C(Cc1ccc(-c2ccccc2)cc1)Nc1ccccn1 [difenpiramide]	0.2	0	2.4	0	98.4	107	100	107	82.9	107	99.3	96.9	96.4	102	117	118	109	110	43.6	106	111	104	103	98.5	> 10	> 10	3.89	> 10	–	–	–	–	–	–	–
